Laboratory results: patent US7300770B2, “Detection of microbe contamination on elastomeric articles” (Kimberly-Clark Worldwide, Inc., priority 2004, dated 2007)
“And” between values parts separate entries of the source, which are not always exact repeats. Equal values may be shown once.

Assays:
[1] = test system: Polio virus type 1; conditions: virus diluted serially in media; 50 microliters, 3 minutes
[2] = test system: Rhinovirus; assay: Virus detection on Reichardt's dye-coated stickers; conditions: virus diluted serially in saline; 50 microliters, 3 minutes
[3] = test system: E. coli; assay: Delta E of dye-coated paper and label substrates versus bacteria concentration; conditions: for Delta E of unknown sample / log CFU/ml (estimated): E. coli
Text: (§1) More specifically, indicator strips coated with Reichardt's dye were exposed with decreasing amounts of the bacteria aliquots. A hand-held spectrophotometer was used to after application of each aliquot to determine “Delta E” value (calculated using L*, A*, and B* values) for each CFU/mL concentration. The results are set forth below in Table 4 (for paper) and Table 5 (for label). From the above, standard detection curves were generated as shown in FIGS. 5-7 for S. aureus, P. aeruginosa, and E. coli, respectively. As shown, each type of bacteria changed the color of the dye-treated substrate in a slightly different way, creating a unique standard curve. Thereafter, drops of unknown bacteria concentrations were placed on the stickers and a spectrophotometer was used to measure the “Delta E” of the resulting color. The numerical values obtained for each unknown sample set forth below in Tables 6-7. […] Although a few of the results were not completely accurate, the present inventors believe that improving the uniformity of the coating would further enhance detection accuracy.

[4] = test system: S. aureus; assay: as above
Text: as §1

[5] = test system: P. aeruginosa; assay: as above
Text: as §1

[6] = test system: E. coli; assay: Dye-coated towel rubbed with dry E. coli colony; conditions: dry colony rubbed onto pre-moistened coated towel
Experimental: A test using the Reichardt's dye coated paper towel with a “dry” bacteria sample was carried out. Specifically, a dry sample of a colony of E. coli bacteria was lifted off an agar petri dish that contained a series of growing cultures. This dry sample was then rubbed onto a pre-moistened dye coated SCOTT® paper towel. The area where the colony was placed and rubbed turned colorless within 1 to 5 seconds.

[7] = test system: E. coli; assay: Titration of microorganisms with Reichardt's dye on cellulosic towel; set-up: species or system Escherichia coli; conditions: Gram(-), 10^7 CFU/mL, 100 microliters
[8] = test system: G. vaginalis; assay: as above; conditions: Gram(-), 10^7 CFU/mL, 100 microliters
[9] = test system: A. niger; assay: as above; conditions: mold, 10^5
[10] = Longest wavelength peak absorption of dyes in three solvents (UV-Visible); format: physicochemical
Text: Reichardt's dye was used without further purification. […] Acetone, methanol, and acetonitrile solvents (HPLC grade) were obtained from Sigma-Aldrich Chemical Co., Inc. A Shimadzu UV-1601 UV-Visible Spectrophotometer (Shimadzu Corporation) was used to measure the longest wavelength peak absorption of the dyes in the range of 400 to 800 nanometers, dissolved in three different solvents, contained in quartz curvettes. The following table contains the results of the testing with the solvents on the left side and dyes across the top.

[11] = test system: Herpes Simplex Virus 1 (HSV-1); assay: Virus detection on Reichardt's dye-coated stickers; conditions: undiluted virus, 50 microliters, 3 minutes
[12] = test system: S. aureus; assay: Titration of microorganisms with Reichardt's dye on cellulosic towel; set-up: species or system Staphylococcus aureus; conditions: Gram(+), 10^7 CFU/mL, 100 microliters
[13] = test system: S. aureus; assay: Color change of Reichardt's dye-treated elastomeric gloves on contact with S. aureus; conditions: natural rubber latex glove; 160 mg dye/10 mL acetonitrile; 10^7 CFU/mL S. aureus
Text: Specifically, a solution of Reichardt's dye (160 milligrams per 10 milliliters of acetonitrile) was brushed onto a piece of a natural rubber latex glove (commercially available from Kimberly-Clark Corp.). A 100-microliter drop of 10^7 CFU/mL S. aureus was then applied to the surface of the glove and gently spread using a disposable pipette. Thereafter, a finger of a second natural rubber latex glove (commercially available from Kimberly-Clark Corp.) was dipped into a solution of Reichardt's dye (160 milligrams per 10 milliliters of acetonitrile). After drying, the fingers of the second glove were used to spread bacteria from the S. aureus droplet placed onto the piece of latex glove to another area on the latex piece.

[14] = test system: vaccinia; conditions: undiluted virus, 50 microliters, 3 minutes
[15] = test system: measles; assay: Virus detection on Reichardt's dye-coated stickers; conditions: undiluted virus, 50 microliters, 3 minutes
[16] = test system: E. coli; assay: Reichardt's dye and TMB coated towel exposed to E. coli suspension; conditions: towel coated with Reichardt's dye and TMB
[17] = Color change of dye with bacterial cell-wall compounds on paper towel; set-up: species or system E. coli; Streptococcus faecalis; conditions: detoxified LPS, lipoteichoic acid
[18] = test system: P. aeruginosa; assay: Titration of microorganisms with Reichardt's dye on cellulosic towel; conditions: Gram(-), 10^7 CFU/mL, 100 microliters
[19] = label substrate, log CFU/ml (actual) 7
[20] = paper substrate, log CFU/ml (actual) 3
[21] = paper substrate, S. aureus, log CFU/ml (actual) 5
[22] = paper substrate, P. aeruginosa, log CFU/ml (actual) 3

SMILES: [O-]c1c(-c2ccccc2)cc(-[n+]2c(-c3ccccc3)cc(-c3ccccc3)cc2-c2ccccc2)cc1-c1ccccc1 [Reichardt's dye, 4-(2,4,6-triphenylpyridinium-1-yl)-2,6-diphenylphenolate]
- Ten-fold dilution down to which stickers changed color [1]: 10^−6
- Ten-fold dilution down to which stickers changed color [2]: 10^−6
- Delta E of unknown sample [3, 19]: 7.1157
- log CFU/ml (estimated) [3, 19]: 7
- Delta E (E. coli) ([3]; label substrate, log CFU/ml 3): 5.13
- Delta E (E. coli) ([3]; label substrate, log CFU/ml 4): 5.201
- Delta E (E. coli) ([3]; label substrate, log CFU/ml 5): 4.644
- Delta E (E. coli) ([3]; label substrate, log CFU/ml 6): 4.867
- Delta E (E. coli) ([3]; label substrate, log CFU/ml 7): 7.779
- Delta E of unknown sample [3, 20]: 1.3605
- log CFU/ml (estimated) [3, 20]: 5
- Delta E (E. coli) ([3]; paper substrate, log CFU/ml 3): 3.8228
- Delta E (E. coli) ([3]; paper substrate, log CFU/ml 4): 3.0123
- Delta E (E. coli) ([3]; paper substrate, log CFU/ml 5): 2.3320
- Delta E (E. coli) ([3]; paper substrate, log CFU/ml 6): 3.2574
- Delta E (E. coli) ([3]; paper substrate, log CFU/ml 7): 4.3483
- Delta E (E. coli) ([3]; paper substrate, log CFU/ml 8): 9.3642
- Delta E of unknown sample ([4]; label substrate, S. aureus, log CFU/ml (actual) 6): 6.869 and 4.228
- Delta E (S. aureus) ([4]; label substrate, log CFU/ml 3): 5.414
- Delta E (S. aureus) ([4]; label substrate, log CFU/ml 4): 4.791
- Delta E (S. aureus) ([4]; label substrate, log CFU/ml 5): 6.92
- Delta E (S. aureus) ([4]; label substrate, log CFU/ml 6): 6.908
- Delta E (S. aureus) ([4]; label substrate, log CFU/ml 7): 18.62
- Delta E of unknown sample [4, 21]: 3.161
- log CFU/ml (estimated) [4, 21]: 5
- Delta E (S. aureus) ([4]; paper substrate, log CFU/ml 3): 1.867
- Delta E (S. aureus) ([4]; paper substrate, log CFU/ml 4): 2.074
- Delta E (S. aureus) ([4]; paper substrate, log CFU/ml 5): 2.447
- Delta E (S. aureus) ([4]; paper substrate, log CFU/ml 6): 3.876
- Delta E (S. aureus) ([4]; paper substrate, log CFU/ml 7): 11.73
- Delta E of unknown sample ([5]; label substrate, P. aeruginosa, log CFU/ml (actual) 6): 4.4954 and 4.1002
- Delta E (P. aeruginosa) ([5]; label substrate, log CFU/ml 3): 3.8787
- Delta E (P. aeruginosa) ([5]; label substrate, log CFU/ml 4): 4.9473
- Delta E (P. aeruginosa) ([5]; label substrate, log CFU/ml 5): 4.6519
- Delta E (P. aeruginosa) ([5]; label substrate, log CFU/ml 6): 4.2419
- Delta E (P. aeruginosa) ([5]; label substrate, log CFU/ml 7): 6.9567
- Delta E of unknown sample [5, 22]: 1.0267
- log CFU/ml (estimated) [5, 22]: 5
- Delta E (P. aeruginosa) ([5]; paper substrate, log CFU/ml 3): 1.7900
- Delta E (P. aeruginosa) ([5]; paper substrate, log CFU/ml 4): 2.2358
- Delta E (P. aeruginosa) ([5]; paper substrate, log CFU/ml 5): 1.7151
- Delta E (P. aeruginosa) ([5]; paper substrate, log CFU/ml 6): 1.3193
- Delta E (P. aeruginosa) ([5]; paper substrate, log CFU/ml 7): 4.9569
- Time to turn colorless [6]: 1 to 5 s
- Amount of Dye Required for Persistent Color [7]: 80 µL
- Amount of Dye Required for Persistent Color [8]: 90 µL
- Amount of Dye Required for Persistent Color [9]: 50 µL
- Color in solvent ([10]; Acetone): (Bluish-green)
- Longest wavelength peak absorption ([10]; Acetone): 674 nm
- Color in solvent ([10]; Acetonitrile): (Blue)
- Longest wavelength peak absorption ([10]; Acetonitrile): 623 nm
- Color in solvent ([10]; Methanol): (red)
- Longest wavelength peak absorption ([10]; Methanol): 509 nm
- De-colorization of sticker [11]: stronger de-colorization of the sticker than that observed for Rhinovirus and Polio virus
- Amount of Dye Required for Persistent Color [12]: 90 µL
- Color change of glove piece and glove finger [13]: immediately changed
- De-colorization of sticker [14]: less than that observed for the other viruses
- De-colorization of sticker [15]: less than that observed for the other viruses
- Time to change color to a white spot [16]: less than 10 seconds
- Color change of dye with the other cell-wall compounds [17]: eventual color change
- Amount of Dye Required for Persistent Color [18]: 80 µL
